Assay [1] addresses 3',5'-cyclic-AMP phosphodiesterase 4A (Homo sapiens, UniProt P27815). Format: functional.
Assay [2] addresses Voltage-gated inwardly rectifying potassium channel KCNH2 (Homo sapiens, UniProt Q12809). Format: functional. The conditions noted are these: read-out: AC50.
In another assay the target is D(3) dopamine receptor (Homo sapiens, UniProt P35462).
In assay [3] the target is T1, Alpha-1A adrenergic receptor (Homo sapiens, UniProt P35348).
T1 sequence (P35348 whole entry): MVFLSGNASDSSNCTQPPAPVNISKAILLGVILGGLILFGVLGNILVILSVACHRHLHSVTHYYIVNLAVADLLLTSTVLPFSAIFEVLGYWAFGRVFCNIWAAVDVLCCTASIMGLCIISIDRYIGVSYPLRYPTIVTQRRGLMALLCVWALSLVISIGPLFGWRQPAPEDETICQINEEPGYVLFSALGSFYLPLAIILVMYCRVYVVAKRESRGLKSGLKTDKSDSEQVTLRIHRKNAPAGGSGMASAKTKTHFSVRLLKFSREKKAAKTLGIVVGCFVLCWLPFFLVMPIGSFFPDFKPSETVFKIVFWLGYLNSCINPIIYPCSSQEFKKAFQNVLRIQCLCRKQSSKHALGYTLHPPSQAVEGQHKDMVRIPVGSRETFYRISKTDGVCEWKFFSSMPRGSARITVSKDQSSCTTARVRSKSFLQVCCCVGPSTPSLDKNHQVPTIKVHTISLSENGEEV
It is filed as functional, cell-based.

The target of a further assay is T2, Thromboxane A2 receptor (Homo sapiens, UniProt P21731).
T2 sequence (P21731 whole entry): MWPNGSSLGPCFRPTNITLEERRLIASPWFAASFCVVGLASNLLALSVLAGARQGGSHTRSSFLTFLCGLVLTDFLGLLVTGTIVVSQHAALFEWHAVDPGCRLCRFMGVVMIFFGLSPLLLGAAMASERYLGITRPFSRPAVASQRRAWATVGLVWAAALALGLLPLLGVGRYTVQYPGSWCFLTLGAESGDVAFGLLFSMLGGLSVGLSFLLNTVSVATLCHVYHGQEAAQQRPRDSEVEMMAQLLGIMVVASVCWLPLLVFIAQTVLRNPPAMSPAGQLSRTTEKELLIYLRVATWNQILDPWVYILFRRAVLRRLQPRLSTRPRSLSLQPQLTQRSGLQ
Format: functional, cell-based.

Assay [4] addresses T3, Muscarinic acetylcholine receptor M2 (Homo sapiens, UniProt P08172).
T3 sequence (P08172 whole entry): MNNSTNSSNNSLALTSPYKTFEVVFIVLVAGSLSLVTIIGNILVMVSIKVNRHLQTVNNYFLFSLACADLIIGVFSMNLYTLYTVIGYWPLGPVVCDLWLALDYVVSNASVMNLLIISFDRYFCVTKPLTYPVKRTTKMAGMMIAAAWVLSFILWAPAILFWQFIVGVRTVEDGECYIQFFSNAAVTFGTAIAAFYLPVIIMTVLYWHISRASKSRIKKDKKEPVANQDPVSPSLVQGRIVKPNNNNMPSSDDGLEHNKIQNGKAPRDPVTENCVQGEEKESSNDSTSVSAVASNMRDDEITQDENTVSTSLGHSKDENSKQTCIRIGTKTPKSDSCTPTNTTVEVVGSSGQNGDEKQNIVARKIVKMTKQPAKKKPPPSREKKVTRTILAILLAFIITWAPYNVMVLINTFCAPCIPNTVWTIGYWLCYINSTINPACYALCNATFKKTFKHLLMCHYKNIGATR

For assay [5], the target named is Sodium-dependent dopamine transporter (Homo sapiens, UniProt Q01959).
Chain of Sodium-dependent dopamine transporter (Q01959 whole entry): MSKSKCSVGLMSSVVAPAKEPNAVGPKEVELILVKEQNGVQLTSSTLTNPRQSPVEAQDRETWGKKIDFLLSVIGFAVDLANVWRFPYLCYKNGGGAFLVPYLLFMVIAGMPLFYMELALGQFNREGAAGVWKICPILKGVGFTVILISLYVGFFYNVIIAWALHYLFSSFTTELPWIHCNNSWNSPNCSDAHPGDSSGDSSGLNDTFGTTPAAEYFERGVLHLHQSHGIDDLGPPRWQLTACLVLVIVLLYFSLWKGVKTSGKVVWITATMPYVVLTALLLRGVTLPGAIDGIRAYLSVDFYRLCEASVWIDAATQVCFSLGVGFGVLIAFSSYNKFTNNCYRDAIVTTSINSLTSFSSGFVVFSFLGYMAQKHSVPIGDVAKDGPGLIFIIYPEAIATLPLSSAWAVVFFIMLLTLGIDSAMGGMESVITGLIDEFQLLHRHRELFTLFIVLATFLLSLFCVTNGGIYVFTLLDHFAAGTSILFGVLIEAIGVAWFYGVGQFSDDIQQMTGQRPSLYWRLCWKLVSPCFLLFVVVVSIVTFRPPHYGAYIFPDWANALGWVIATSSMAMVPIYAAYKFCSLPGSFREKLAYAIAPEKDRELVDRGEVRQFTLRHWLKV
In assay [6] the target is T4, Alpha-2A adrenergic receptor (Homo sapiens, UniProt P08913).
T4 sequence (P08913 whole entry): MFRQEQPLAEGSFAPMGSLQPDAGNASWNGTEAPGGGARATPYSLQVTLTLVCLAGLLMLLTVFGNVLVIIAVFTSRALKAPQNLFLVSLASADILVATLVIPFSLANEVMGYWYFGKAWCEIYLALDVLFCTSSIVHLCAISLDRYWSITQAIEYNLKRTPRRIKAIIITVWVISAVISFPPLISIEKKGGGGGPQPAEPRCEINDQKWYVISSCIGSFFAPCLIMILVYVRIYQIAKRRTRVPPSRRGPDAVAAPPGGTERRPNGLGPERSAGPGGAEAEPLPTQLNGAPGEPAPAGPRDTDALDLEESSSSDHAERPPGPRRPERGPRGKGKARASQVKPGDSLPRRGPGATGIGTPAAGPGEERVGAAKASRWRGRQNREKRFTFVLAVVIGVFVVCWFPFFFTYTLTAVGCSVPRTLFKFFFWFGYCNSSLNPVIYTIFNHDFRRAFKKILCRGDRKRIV

Another assay concerns the target Prothrombin (Homo sapiens, UniProt P00734). It is filed as functional.

In general, AC50 refers to the concentration at which the activity in the assay is half-maximal.

Some results are limits rather than exact numbers.
Further: assay procedure not described here.

Chain of D(3) dopamine receptor (P35462 whole entry): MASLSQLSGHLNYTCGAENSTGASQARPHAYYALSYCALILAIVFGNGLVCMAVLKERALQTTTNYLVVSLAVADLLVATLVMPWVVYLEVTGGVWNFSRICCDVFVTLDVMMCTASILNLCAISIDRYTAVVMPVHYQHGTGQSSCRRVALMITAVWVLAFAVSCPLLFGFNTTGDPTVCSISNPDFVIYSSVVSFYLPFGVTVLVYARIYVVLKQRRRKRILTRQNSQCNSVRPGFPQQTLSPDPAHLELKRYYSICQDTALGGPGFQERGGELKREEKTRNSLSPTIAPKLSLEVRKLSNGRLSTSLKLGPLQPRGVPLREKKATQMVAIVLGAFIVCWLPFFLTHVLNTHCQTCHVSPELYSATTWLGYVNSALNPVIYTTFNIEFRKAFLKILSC
Chain of 3',5'-cyclic-AMP phosphodiesterase 4A (P27815 whole entry): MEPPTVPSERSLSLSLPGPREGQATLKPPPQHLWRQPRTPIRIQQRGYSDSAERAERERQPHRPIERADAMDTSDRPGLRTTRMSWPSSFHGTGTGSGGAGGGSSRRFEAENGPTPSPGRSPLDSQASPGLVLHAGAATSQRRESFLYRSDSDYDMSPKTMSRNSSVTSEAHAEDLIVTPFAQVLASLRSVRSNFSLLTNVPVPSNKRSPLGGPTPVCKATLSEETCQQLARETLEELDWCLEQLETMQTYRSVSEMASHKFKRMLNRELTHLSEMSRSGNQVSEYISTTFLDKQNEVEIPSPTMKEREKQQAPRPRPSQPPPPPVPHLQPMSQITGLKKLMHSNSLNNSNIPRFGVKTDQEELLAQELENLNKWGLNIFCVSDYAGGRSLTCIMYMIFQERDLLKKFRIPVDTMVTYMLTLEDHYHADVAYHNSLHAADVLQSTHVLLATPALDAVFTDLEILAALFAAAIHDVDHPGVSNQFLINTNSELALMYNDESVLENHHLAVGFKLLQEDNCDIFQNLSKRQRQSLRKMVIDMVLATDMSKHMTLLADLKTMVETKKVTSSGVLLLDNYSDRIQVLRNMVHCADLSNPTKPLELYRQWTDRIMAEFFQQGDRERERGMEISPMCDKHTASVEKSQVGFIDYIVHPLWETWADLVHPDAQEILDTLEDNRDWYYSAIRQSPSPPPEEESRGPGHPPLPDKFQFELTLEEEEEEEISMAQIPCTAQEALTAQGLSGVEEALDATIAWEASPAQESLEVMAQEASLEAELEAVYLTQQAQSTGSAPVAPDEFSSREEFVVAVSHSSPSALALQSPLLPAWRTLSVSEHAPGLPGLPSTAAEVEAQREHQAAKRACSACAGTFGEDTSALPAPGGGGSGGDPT
Chain of Voltage-gated inwardly rectifying potassium channel KCNH2 (Q12809 whole entry): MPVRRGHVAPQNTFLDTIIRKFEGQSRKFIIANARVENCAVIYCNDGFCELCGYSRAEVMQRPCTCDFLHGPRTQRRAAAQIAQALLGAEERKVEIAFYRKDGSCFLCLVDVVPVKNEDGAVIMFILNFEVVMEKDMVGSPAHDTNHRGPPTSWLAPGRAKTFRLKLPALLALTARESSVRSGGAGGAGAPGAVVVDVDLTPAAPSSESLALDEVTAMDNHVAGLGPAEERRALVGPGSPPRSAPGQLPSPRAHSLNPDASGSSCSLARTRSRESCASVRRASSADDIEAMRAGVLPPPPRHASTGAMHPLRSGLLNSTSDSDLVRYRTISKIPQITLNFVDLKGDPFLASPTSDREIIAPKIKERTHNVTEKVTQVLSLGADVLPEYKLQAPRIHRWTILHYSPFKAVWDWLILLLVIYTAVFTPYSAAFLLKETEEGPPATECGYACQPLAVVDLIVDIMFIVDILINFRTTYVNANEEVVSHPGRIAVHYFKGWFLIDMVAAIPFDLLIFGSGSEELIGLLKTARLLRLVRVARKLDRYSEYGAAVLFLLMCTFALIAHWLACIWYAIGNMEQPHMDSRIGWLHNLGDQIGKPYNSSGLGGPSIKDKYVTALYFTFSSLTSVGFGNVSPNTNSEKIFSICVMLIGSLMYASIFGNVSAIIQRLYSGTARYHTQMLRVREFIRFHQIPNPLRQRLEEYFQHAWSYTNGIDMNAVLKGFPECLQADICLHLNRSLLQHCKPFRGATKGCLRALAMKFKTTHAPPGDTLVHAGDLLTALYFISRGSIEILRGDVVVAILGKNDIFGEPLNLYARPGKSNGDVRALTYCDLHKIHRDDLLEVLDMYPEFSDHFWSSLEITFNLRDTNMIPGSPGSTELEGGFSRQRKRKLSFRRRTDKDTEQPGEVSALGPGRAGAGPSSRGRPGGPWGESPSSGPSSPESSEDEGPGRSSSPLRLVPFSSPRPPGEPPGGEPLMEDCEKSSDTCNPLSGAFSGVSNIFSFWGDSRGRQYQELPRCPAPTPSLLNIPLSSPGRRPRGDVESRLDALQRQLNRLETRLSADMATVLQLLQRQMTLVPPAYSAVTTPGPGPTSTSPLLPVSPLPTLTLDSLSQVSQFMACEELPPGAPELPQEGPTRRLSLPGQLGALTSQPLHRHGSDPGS

Regarding `CCCC1O[C@@H]2C[C@H]3[C@@H]4CCC5=CC(=O)C=C[C@]5(C)[C@H]4[C@@H](O)C[C@]3(C)[C@]2(C(=O)CO)O1` (stereo partly drawn) [BUDESONIDE], the AC50 (in assay [1]; in [2]; at D(3) dopamine receptor; in assay [3]; at Thromboxane A2 receptor; in assay [4]) was greater than 30 µM in each case. Further, the half-maximal activity concentration (AC50) (in assay [5]; in assay [6]; on Prothrombin) was greater than 30 µM in each case.
Consider `CN(C)CC/C=C1\c2ccccc2CSc2ccccc21` [DOTHIEPIN], for which, in assay [2], the concentration at half-maximal activity (AC50) turned out to be 1.5 µM.
With `CC[C@H]1CN2CCc3cc(OC)c(OC)cc3[C@@H]2C[C@@H]1C[C@H]1NCCc2cc(OC)c(OC)cc21` [EMETINE], the half-maximal activity concentration (AC50) in assay [1] was greater than 30 µM; at D(3) dopamine receptor it was greater than 30 µM; on Thromboxane A2 receptor, greater than 30 µM; in assay [4], greater than 30 µM; in assay [5] it was greater than 30 µM; in assay [6], 0.09 µM. For the same compound, at Prothrombin, the AC50 is greater than 30 µM.
With `O=c1[nH]c(=O)n([C@H]2C[C@H](O)[C@@H](CO)O2)cc1F` [FLOXURIDINE], the half-maximal activity concentration (AC50) (in [1]; in assay [2]; at D(3) dopamine receptor; in assay [3]; on Thromboxane A2 receptor; in [4]) was greater than 30 µM throughout. Further, the AC50 (in assay [5]; in [6]; on Prothrombin) was greater than 30 µM each time.
As to `Clc1cc(Cl)c(OCC#CI)cc1Cl` [HALOPROGIN], the AC50 is greater than 30 µM in assay [1]; 9.85 µM in [2]; 1.16 µM at D(3) dopamine receptor; greater than 30 µM in assay [3]; greater than 30 µM at Thromboxane A2 receptor; greater than 30 µM in [4]. The AC50 in assay [5] was 6.43 µM; in assay [6], 17.7 µM; on Prothrombin, greater than 30 µM.
As to `O=c1[nH]c(=O)n([C@H]2C[C@H](O)[C@@H](CO)O2)cc1I` [IDOXURIDINE], the AC50 (in [1]; in assay [2]; on D(3) dopamine receptor; in assay [3]; at Thromboxane A2 receptor; in [4]) was greater than 30 µM each time. The half-maximal activity concentration (AC50) (in [5]; in assay [6]; on Prothrombin) was greater than 30 µM in each case.
With `Cc1cc(C)c(NC(=O)CN(CC(=O)O)CC(=O)O)c(C)c1Br` [MEBROFENIN], the AC50 (in [1]; in [2]; on D(3) dopamine receptor; at Thromboxane A2 receptor; in assay [4]; in [5]) was greater than 30 µM in each case. In addition, the AC50 (in assay [6]; on Prothrombin) was greater than 30 µM each time.
On to `COc1ccccc1N1CCN(CC(O)COc2cccc3ccccc23)CC1` (stereo not drawn) [NAFTOPIDIL], for which the AC50 in assay [1] was greater than 30 µM; in [2] it was 0.87 µM; on D(3) dopamine receptor, 0.04 µM; at Thromboxane A2 receptor, greater than 30 µM; in assay [4], greater than 30 µM; in assay [5], 4.46 µM. For the same compound, the results for the half-maximal activity concentration (AC50) (in assay [6]; at Prothrombin) were 0.29 µM and greater than 30 µM, respectively.
For `COc1cc([C@@H]2c3cc4c(cc3[C@H](O)[C@H]3COC(=O)[C@H]23)OCO4)cc(OC)c1OC` [PODOFILOX], the AC50 was greater than 10 µM in [1]; greater than 30 µM in assay [2]; greater than 30 µM at D(3) dopamine receptor; 6.56 µM in [3]; greater than 30 µM at Thromboxane A2 receptor; greater than 30 µM in [4]. Moreover, the concentration at half-maximal activity (AC50) (in [5]; in assay [6]; on Prothrombin) was greater than 30 µM throughout.
With `COc1cc2nc(N3CCN(C(=O)c4ccco4)CC3)nc(N)c2cc1OC` [PRAZOSIN], the AC50 in assay [1] is greater than 30 µM; in assay [2], 3.73 µM; at D(3) dopamine receptor, greater than 30 µM; on Thromboxane A2 receptor it was greater than 30 µM; in assay [4], 13.3 µM; in [5], 30 µM. On Prothrombin, this compound displayed an AC50 greater than 10 µM.
As for `Cc1oc(=O)oc1CN1CCN(c2cc3c(cc2F)c(=O)c(C(=O)O)c2n3C(C)S2)CC1` (stereo not drawn) [PRULIFLOXACIN], the AC50 (in assay [1]; in assay [2]; on D(3) dopamine receptor; at Thromboxane A2 receptor; in assay [4]; in [5]) was greater than 30 µM throughout. Besides, the AC50 (in assay [6]; at Prothrombin) was greater than 30 µM throughout.
As for `CCN1CCCC1CNC(=O)c1cc(S(N)(=O)=O)ccc1OC` (stereo not drawn) [SULPIRIDE], the AC50 (in [1]; in [2]; in assay [3]; on Thromboxane A2 receptor; in assay [4]; in assay [5]) was greater than 30 µM in each case. Further, the figures for the AC50 (in assay [6]; on Prothrombin) were 7.52 µM and greater than 30 µM, respectively.
Consider `O=c1[nH]c(=O)n(C2CCCO2)cc1F` (stereo not drawn) [TEGAFUR], for which the AC50 (in assay [1]; in [2]; in [3]; at Thromboxane A2 receptor; in assay [4]; in assay [5]) was greater than 30 µM throughout. Moreover, the half-maximal activity concentration (AC50) (in [6]; at Prothrombin) was greater than 30 µM each time.
For `Nc1nc2nc[nH]c2c(=S)[nH]1` [THIOGUANINE], the AC50 (in assay [1]; on D(3) dopamine receptor; in [3]; at Thromboxane A2 receptor; in assay [4]; in assay [5]) was greater than 30 µM in each case. Further, the AC50 (in assay [6]; at Prothrombin) was greater than 30 µM throughout.
Regarding `COc1cc2c3cc1Oc1cc(ccc1O)C[C@@H]1c4c(cc(OC)c(O)c4Oc4ccc(cc4)C[C@@H]3N(C)CC2)CC[N+]1(C)C` [TUBOCURARINE], the half-maximal activity concentration (AC50) (in assay [1]; in [2]; on D(3) dopamine receptor; in assay [3]; on Thromboxane A2 receptor; in assay [4]) was greater than 30 µM in each case. The AC50 (in [5]; in assay [6]; on Prothrombin) was greater than 30 µM each time.
With `C=CCCCCCCCCC(=O)O` [UNDECYLENIC ACID], the AC50 (in assay [1]; on D(3) dopamine receptor; at Thromboxane A2 receptor; in assay [4]; in assay [5]; in assay [6]) was greater than 30 µM each time. The concentration at half-maximal activity (AC50) on Prothrombin was greater than 30 µM.
As to `CC[C@]1(O)C[C@H]2CN(CCc3c([nH]c4ccccc34)[C@@](C(=O)OC)(c3cc4c(cc3OC)N(C=O)[C@H]3[C@@](O)(C(=O)OC)[C@H](OC(C)=O)[C@]5(CC)C=CCN6CC[C@]43[C@@H]65)C2)C1` [VINCRISTINE], the AC50 (in assay [1]; at D(3) dopamine receptor; in assay [3]; on Thromboxane A2 receptor; in assay [4]; in [5]) was greater than 30 µM in each case. In addition, the AC50 (in [6]; on Prothrombin) was greater than 30 µM throughout.
Turning to `CN(C)CCc1c[nH]c2ccc(C[C@H]3COC(=O)N3)cc12` [ZOLMITRIPTAN], the concentration at half-maximal activity (AC50) in assay [2] was greater than 30 µM.

Source of the values: ChEMBL document CHEMBL5291721, “A preclinical secondary pharmacology resource illuminates target-adverse drug reaction associations of marketed drugs” (Nat Commun, 2023).
